Test results as given in patent US7075582B2, “Methods for identifying and using MarR family polypeptide binding compounds” (Paratek Pharmaceuticals, Inc., priority 2001, dated 2006).

Tests used:
MarR [1] = target: T1, MarR (Escherichia coli, UniProt P27245); details: salicylate at millimolar concentrations; cited from earlier work
MarR [2] = target: T1, MarR; details: salicylate at millimolar concentrations; cited from earlier work; remark: listed apart in the source
[3] = target: MarR (wild type, Escherichia coli), one subunit of the MarR homodimer (E. coli); assay: X-ray crystal structure, MarR-salicylate co-crystal

T1 sequence (P27245 whole entry): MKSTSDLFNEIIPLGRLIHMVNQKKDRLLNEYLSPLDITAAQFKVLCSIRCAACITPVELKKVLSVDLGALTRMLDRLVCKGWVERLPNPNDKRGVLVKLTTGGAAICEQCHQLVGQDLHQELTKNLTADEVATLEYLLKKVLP

Compound | MarR activity in vitro (MarR [1]) | MarR activity in whole cells (MarR [2]) | buried surface area (N-/C-terminal hydrophobic core) [3] [Å^2] | total buried surface area for the whole dimer [3] [Å^2]
O=C([O-])c1ccccc1O.[Na+] [sodium salicylate] | inhibit MarR activity | inhibit MarR activity | – | –
MarR (wild type, Escherichia coli), one subunit of the MarR homodimer | – | – | 3570 | 3700
